Results taken from patent publication US9718812B2, “Substituted thiazole or oxazole P2X7 receptor antagonists” (Axxam S.P.A., priority 2014, dated 2017).

Assays:
Format in all cases: cell-based
P2X7 receptor [1] = target: T1, P2X7 receptor (Homo sapiens (Human), UniProt Q99572); experiment: human P2X7 channel assay by automated patch-clamp (QPatch 16X); settings: HEK-293 cells expressing P2X7 channels, 100 microM BzATP, held at -80 mV, read-out: hP2X7 (IC50; nM)
Procedure: In order to directly monitor the block of P2X7 channel, an electrophysiological assay was developed and implemented on the QPatch 16X automated electrophysiology instrument.
HEK-293 cells expressing the P2X7 channels were cultured in modified EMEM.
72 hours before experiment, 5 million cells were seeded onto T225 flasks. Just before the experiment cells were washed twice, detached from the flask with trypsin-EDTA, re-suspended in the suspension solution and placed on the QPatch 16x.
The compounds (20 mM in a 100% DMSO) stored at −20° C. were prepared the day of the experiment (a first dilution 1:20 in 100% DMSO to prepare a 1 mM stock solution, then a 1 microM solution in external solution+a serial dilution 1:10).
The standard whole-cell voltage clamp experiments were performed at room temperature. For these experiments the multihole technology was used and the data were sampled at 2 KHz.
The intracellular solution contained (mM) 135 CsF, 10 NaCl, 1 EGTA, 10 HEPES, (pH 7.2 with CsOH) whereas the extracellular contained (mM) 145 NaCl, 4 KCl, 0.5 MgCl2, 1 CaCl2, 10 HEPES, 10 Glc (pH 7.4 with NaOH).
After establishment of the seal and the passage in the whole cell configuration, the cells were held at −80 mV. The P2XR7 current was evoked by applying 100 microM of BzATP alone (4 times) and then in the presence increasing concentrations of the compound under investigation (1, 10, 100 and 1000 nM).
The pre-incubation periods 5 to 8 contain increasing concentrations of the compound of interest (1, 10, 100 and 1000 nM), as illustrated in Figure (application protocol).
The maximal inward current evoked by BzATP in absence or presence of increasing concentrations of the compounds under investigation was measured and normalized.
Y: normalized response, 100% down to 0%, decreasing as X increases.
Log IC50: same log units as X
HillSlope: slope factor or HS, unitless

P2X7 receptor (hP2X7) = P2X7 receptor (hP2X7) (Homo sapiens (Human), UniProt Q99572); experiment: Screen Quest Fluo-8 No Wash Calcium Assay (Bz-ATP-induced Ca2+ influx, FLIPR TETRA); settings: HEK-293 cells stably transfected with P2X7 receptor, Fluo-8 calcium, Low Divalent Cation Assay Buffer
Chain of P2X7 receptor (hP2X7) (Q99572 whole entry): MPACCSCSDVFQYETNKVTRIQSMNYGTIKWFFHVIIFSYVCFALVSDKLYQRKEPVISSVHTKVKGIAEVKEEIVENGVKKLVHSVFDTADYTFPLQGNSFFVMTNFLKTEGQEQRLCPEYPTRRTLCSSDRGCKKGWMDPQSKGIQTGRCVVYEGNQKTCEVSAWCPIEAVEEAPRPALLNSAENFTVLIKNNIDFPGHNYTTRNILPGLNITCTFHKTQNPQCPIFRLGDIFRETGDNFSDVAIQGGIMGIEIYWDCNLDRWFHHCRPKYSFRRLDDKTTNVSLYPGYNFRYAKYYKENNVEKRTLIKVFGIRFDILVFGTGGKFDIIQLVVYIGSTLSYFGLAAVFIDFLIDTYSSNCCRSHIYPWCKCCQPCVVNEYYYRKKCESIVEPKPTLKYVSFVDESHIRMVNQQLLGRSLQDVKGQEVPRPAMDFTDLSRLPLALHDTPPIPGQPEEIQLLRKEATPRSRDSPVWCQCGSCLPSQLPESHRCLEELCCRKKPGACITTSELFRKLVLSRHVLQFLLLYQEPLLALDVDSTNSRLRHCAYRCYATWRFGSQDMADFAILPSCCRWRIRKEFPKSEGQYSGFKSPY
Method in brief: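 Read-out is Fluo-8 NW fluorescence recorded over a 5-min kinetic window, reporting Bz-ATP-evoked Ca2+ entry. Cells: HEK-293 stably expressing the P2X7 receptor, dye-loaded for 1 h at room temperature before compound injection.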

P2X7 receptor [2] = target: T1, P2X7 receptor; experiment: YO-PRO-1 Uptake Assay (large pore form, Bz-ATP stimulated); settings: HEK-293 cells stably transfected with P2X7 receptor; Bz-ATP EC80 (30 μM); 5 μM YO-PRO-1
Method in brief: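 IC50 values derive from percent inhibition versus A438079, using large-pore YO-PRO-1 (5 μM) entry into P2X7-transfected HEK-293 cells. Buffer held 0.3 mM Ca2+ and no Mg2+; after 5 min with test compound, cells were challenged with Bz-ATP at EC80 (30 μM, 3× concentration) and fluorescence recorded 60 min.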

T1 sequence (Q99572 whole entry): as above

Cc1ncc(C(CNC(=O)c2cc(-c3ncc(F)cn3)ccc2Cl)N2CCC(F)(F)CC2)s1 (racemic) [Compound 61, 2-chloro-N-[2-(4,4-difluoropiperidin-1-yl)-2-(2-methyl-1,3-thiazol-5-yl)ethyl]-5-(5-fluoropyrimidin-2-yl)benzamide]
IC50 (P2X7 receptor [1]): 56.3 nM | IC50 (P2X7 receptor (hP2X7)): 280 nM | IC50 (P2X7 receptor [2]): 124 nM

Cc1ncc(C(CNC(=O)c2cc(-c3ncc(F)cn3)ccc2Cl)N2CCC(F)(F)CC2)s1 (single isomer, unassigned; (+)) [Compound 127, (+)-2-chloro-N-[2-(4,4-difluoro-piperidin-1-yl)-2-(2-methylthiazol-5-yl)ethyl]-5-(5-fluoropyrimidin-2-yl)benzamide]
IC50 (P2X7 receptor [1]): 65.7 nM | IC50 (P2X7 receptor (hP2X7)): 73 nM | IC50 (P2X7 receptor [2]): 22 nM

Cc1cccc(C)c1C(=O)NCC(c1cncs1)N1CCC(F)(F)CC1 (stereo not shown) [Compound 14, N-[2-(4,4-difluoropiperidin-1-yl)-2-(1,3-thiazol-5-yl)ethyl]-2,6-dimethylbenzamide]
IC50 (P2X7 receptor [1]): 22.7 nM | IC50 (P2X7 receptor (hP2X7)): 27 nM | IC50 (P2X7 receptor [2]): 24 nM

Cc1ncsc1C(CNC(=O)c1c(F)cccc1Cl)N1CCc2ccccc2C1 (stereo not shown) [Compound 29, 2-chloro-6-fluoro-N-[2-(4-methyl-1,3-thiazol-5-yl)-2-(1,2,3,4-tetrahydroisoquinolin-2-yl)ethyl]benzamide]
IC50 (P2X7 receptor [1]): 36.1 nM | IC50 (P2X7 receptor (hP2X7)): 130 nM | IC50 (P2X7 receptor [2]): 90 nM

Cc1ncsc1C(CNC(=O)c1c(F)cccc1Cl)N1CCOCC1 (stereo not shown) [Compound 35, 2-chloro-6-fluoro-N-[2-(4-methyl-1,3-thiazol-5-yl)-2-(morpholin-4-yl)ethyl]benzamide]
IC50 (P2X7 receptor [1]): 947 nM | IC50 (P2X7 receptor (hP2X7)): 469 nM | IC50 (P2X7 receptor [2]): 4080 nM

Cc1ncc(C(CNC(=O)c2c(C)cccc2Cl)N2CCC(F)(F)CC2)s1 (stereo not shown) [Compound 39, 2-chloro-N-[2-(4,4-difluoropiperidin-1-yl)-2-(2-methyl-1,3-thiazol-5-yl)ethyl]-6-methylbenzamide]
IC50 (P2X7 receptor [1]): 61.9 nM | IC50 (P2X7 receptor (hP2X7)): 28 nM | IC50 (P2X7 receptor [2]): 18 nM

O=C(NCC(c1cnco1)N1CCC(F)(F)CC1)c1cc(-c2ncc(F)cn2)ccc1Cl (stereo not shown) [Compound 47, 2-chloro-N-[2-(4,4-difluoropiperidin-1-yl)-2-(1,3-oxazol-5-yl)ethyl]-5-(5-fluoropyrimidin-2-yl)benzamide]
IC50 (P2X7 receptor [1]): 33.9 nM | IC50 (P2X7 receptor (hP2X7)): 43 nM | IC50 (P2X7 receptor [2]): 36 nM

Cc1ncoc1C(CNC(=O)c1ccc(-c2ncc(F)cn2)cc1Cl)N1CCc2ccccc2C1 (stereo not shown) [Compound 57, 2-chloro-4-(5-fluoropyrimidin-2-yl)-N-[2-(4-methyl-1,3-oxazol-5-yl)-2-(1,2,3,4-tetrahydroisoquinolin-2-yl)ethyl]benzamide]
IC50 (P2X7 receptor [1]): 71 nM | IC50 (P2X7 receptor (hP2X7)): 214 nM | IC50 (P2X7 receptor [2]): 197 nM

Cc1ncsc1C(CNC(=O)c1c(F)cccc1Cl)N1CCC(OCc2ccccc2)CC1 (stereo not shown) [Compound 59, N-{2-[4-(benzyloxy)piperidin-1-yl]-2-(4-methyl-1,3-thiazol-5-yl)ethyl}-2-chloro-6-fluorobenzamide]
IC50 (P2X7 receptor [1]): 69.2 nM | IC50 (P2X7 receptor (hP2X7)): 242 nM | IC50 (P2X7 receptor [2]): 55 nM

Cc1ncsc1C(CNC(=O)c1c(F)cccc1Cl)N1CCC(Oc2ccccc2)CC1 (stereo not shown) [Compound 60, 2-chloro-6-fluoro-N-[2-(4-methyl-1,3-thiazol-5-yl)-2-(4-phenoxypiperidin-1-yl)ethyl]benzamide]
IC50 (P2X7 receptor [1]): 58.9 nM | IC50 (P2X7 receptor (hP2X7)): 188 nM | IC50 (P2X7 receptor [2]): 79 nM

Cc1ncsc1C(CNC(=O)c1cc(-c2ncc(F)cn2)ccc1Cl)N1CCCC(F)(F)C1 (stereo not shown) [Compound 66, 2-chloro-N-[2-(3,3-difluoropiperidin-1-yl)-2-(4-methyl-1,3-thiazol-5-yl)ethyl]-5-(5-fluoropyrimidin-2-yl)benzamide]
IC50 (P2X7 receptor [1]): 82.5 nM | IC50 (P2X7 receptor (hP2X7)): 22 nM | IC50 (P2X7 receptor [2]): 58 nM

O=C(NCC(c1scnc1C(F)(F)F)N1CCC(F)(F)CC1)c1c(F)cccc1Cl (stereo not shown) [Compound 67, 2-chloro-N-[2-(4,4-difluoropiperidin-1-yl)-2-[4-(trifluoromethyl)-1,3-thiazol-5-yl]ethyl]-6-fluorobenzamide]
IC50 (P2X7 receptor [1]): 117 nM | IC50 (P2X7 receptor (hP2X7)): 108 nM | IC50 (P2X7 receptor [2]): 287 nM

O=C(NCC(c1scnc1C(F)(F)F)N1CCC(F)(F)CC1)c1cc(-c2ncc(F)cn2)ccc1Cl (stereo not shown) [Compound 68]
IC50 (P2X7 receptor [1]): 63.1 nM | IC50 (P2X7 receptor (hP2X7)): 103 nM | IC50 (P2X7 receptor [2]): 181 nM

Cc1ncsc1C(CNC(=O)c1cc(-c2ncc(F)cn2)ccc1F)N1CCC(F)(F)CC1 (stereo not shown) [Compound 70, N-[2-(4,4-difluoropiperidin-1-yl)-2-(4-methyl-1,3-thiazol-5-yl)ethyl]-2-fluoro-5-(5-fluoropyrimidin-2-yl)benzamide]
IC50 (P2X7 receptor [1]): 58.4 nM | IC50 (P2X7 receptor (hP2X7)): 32 nM | IC50 (P2X7 receptor [2]): 183 nM

Cc1ncsc1C(CNC(=O)c1cc(-c2cnccn2)ccc1Cl)N1CCC(F)(F)CC1 (stereo not shown) [Compound 72, 2-chloro-N-[2-(4,4-difluoropiperidin-1-yl)-2-(4-methyl-1,3-thiazol-5-yl)ethyl]-5-(pyrazin-2-yl)benzamide]
IC50 (P2X7 receptor [1]): 78.1 nM | IC50 (P2X7 receptor (hP2X7)): 30 nM | IC50 (P2X7 receptor [2]): 60 nM

Cc1cccc(-c2ccc(Cl)c(C(=O)NCC(c3scnc3C)N3CCC(F)(F)CC3)c2)n1 (stereo not shown) [Compound 74, 2-chloro-N-[2-(4,4-difluoropiperidin-1-yl)-2-(4-methyl-1,3-thiazol-5-yl)ethyl]-5-(6-methylpyridin-2-yl)benzamide]
IC50 (P2X7 receptor [1]): 65.2 nM | IC50 (P2X7 receptor (hP2X7)): 55 nM | IC50 (P2X7 receptor [2]): 87 nM

Cc1ncsc1C(CN(C)C(=O)c1cc(-c2ncc(F)cn2)ccc1Cl)N1CCC(F)(F)CC1 (stereo not shown) [Compound 77, 2-chloro-N-[2-(4,4-difluoropiperidin-1-yl)-2-(4-methyl-1,3-thiazol-5-yl)ethyl]-5-(5-fluoropyrimidin-2-yl)-N-]
IC50 (P2X7 receptor [1]): 183 nM | IC50 (P2X7 receptor (hP2X7)): 1760 nM

O=C(NCC(c1cnc(C2CC2)s1)N1CCC(F)(F)CC1)c1c(F)cccc1Cl (stereo not shown) [Compound 88, 2-chloro-N-[2-(2-cyclopropyl-1,3-thiazol-5-yl)-2-(4,4-difluoropiperidin-1-yl)ethyl]-6-fluorobenzamide]
IC50 (P2X7 receptor [1]): 52.1 nM | IC50 (P2X7 receptor (hP2X7)): 36 nM | IC50 (P2X7 receptor [2]): 28 nM

O=C(NCC(c1scnc1C(F)F)N1CCC(F)(F)CC1)c1cc(-c2ncc(F)cn2)ccc1Cl (stereo not shown) [Compound 102, 2-chloro-N-{2-[4-(difluoromethyl)-1,3-thiazol-5-yl]-2-(4,4-difluoropiperidin-1-yl)ethyl}-5-(5-fluoropyrimidin-2-yl)benzamide]
IC50 (P2X7 receptor [1]): 57.1 nM | IC50 (P2X7 receptor (hP2X7)): 60 nM | IC50 (P2X7 receptor [2]): 34 nM

CCCc1ncc(C(CNC(=O)c2cc(-c3ncc(F)cn3)ccc2Cl)N2CCC(F)(F)CC2)s1 (stereo not shown) [Compound 107, 2-chloro-N-[2-(4,4-difluoropiperidin-1-yl)-2-(2-propyl-1,3-thiazol-5-yl)ethyl]-5-(5-fluoropyrimidin-2-yl)benzamide]
IC50 (P2X7 receptor (hP2X7)): 631 nM | IC50 (P2X7 receptor [2]): 158 nM

CCCc1ncc(C(CNC(=O)c2cccc3ncccc23)N2CCC(F)(F)CC2)s1 (stereo not shown) [Compound 108, N-[2-(4,4-difluoropiperidin-1-yl)-2-(2-propyl-1,3-thiazol-5-yl)ethyl]quinoline-5-carboxamide]
IC50 (P2X7 receptor (hP2X7)): 199 nM | IC50 (P2X7 receptor [2]): 77 nM

CCCc1ncc(C(CNC(=O)c2c(F)cccc2Cl)N2CCC(F)(F)CC2)s1 (stereo not shown) [Compound 109, 2-chloro-N-[2-(4,4-difluoropiperidin-1-yl)-2-(2-propyl-1,3-thiazol-5-yl)ethyl]-6-fluorobenzamide]
IC50 (P2X7 receptor (hP2X7)): 78 nM | IC50 (P2X7 receptor [2]): 50 nM

O=C(NCC(c1cnc(C2CCC2)s1)N1CCC(F)(F)CC1)c1c(F)cccc1Cl (stereo not shown) [Compound 110, 2-chloro-N-[2-(2-cyclobutyl-1,3-thiazol-5-yl)-2-(4,4-difluoropiperidin-1-yl)ethyl]-6-fluorobenzamide]
IC50 (P2X7 receptor (hP2X7)): 119 nM | IC50 (P2X7 receptor [2]): 46 nM

O=C(NCC(c1cnc(C2CCC2)s1)N1CCC(F)(F)CC1)c1cc(-c2ncc(F)cn2)ccc1Cl (stereo not shown) [Compound 111]
IC50 (P2X7 receptor (hP2X7)): 1020 nM | IC50 (P2X7 receptor [2]): 326 nM

O=C(NCC(c1cnc(CO)s1)N1CCC(F)(F)CC1)c1cc(-c2ncc(F)cn2)ccc1Cl (stereo not shown) [Compound 112]
IC50 (P2X7 receptor (hP2X7)): 119 nM | IC50 (P2X7 receptor [2]): 36 nM

O=C(NCC(c1cnc(C2CCC(F)(F)CC2)s1)N1CCOCC1)c1c(F)cccc1Cl (stereo not shown) [Compound 116, 2-chloro-N-{2-[2-(4,4-difluorocyclohexyl)-1,3-thiazol-5-yl]-2-(morpholin-4-yl)ethyl}-6-fluorobenzamide]
IC50 (P2X7 receptor (hP2X7)): 60 nM | IC50 (P2X7 receptor [2]): 41 nM
